SMILES strings stand for the structures.

As a reminder, the melting point is the temperature, or range, at which the solid turns liquid. Regarding `FC(F)(F)c1ccc(-c2nocc2CCl)cc1`, the melting point lay within 84 to 85 °C. On to `CCOC(=O)COc1ccc(C(=O)Nc2cccc(Cl)c2Cl)cc1`, for which the melting point lay in the range of 126 to 129 °C.

`N#CC(N)=C(C#N)N=C1c2ccccc2-c2ccccc21` gave a melting point of 156 to 157 °C.

Compound `N#CCc1cccc2nnsc12` returned a melting point of 78 to 80 °C. Next, `COc1ccc(-c2c(Cl)c(CN3C(=O)c4ccccc4C3=O)nc3sc4c(c23)CCS(=O)(=O)C4)cc1`: 298 to 299 °C; `CCCc1cc(Cl)c2oc(C(=O)c3ccc(OC)cc3)c(C)c2c1O`: 103 to 105 °C. Compound `CNC(=S)Nc1ccccc1CC(=O)OC` came in with a melting point of 99 to 100 °C. The result for `O=c1c2cccnc2n(-c2cccc([N+](=O)[O-])c2)c(=O)n1Cc1ccncc1` reads 207 to 209 °C. Next, `Cc1nc2cc(Sc3cccc4cnccc34)c([N+](=O)[O-])cc2s1`: 217 to 220 °C. For the compound `O=C(CCCCc1ccccc1)NC(C(=O)Nc1n[nH]c(=S)s1)c1ccccc1` (stereo not drawn), the melting point fell in the range of 210 to 211 °C. In turn, `CCOc1cc(C2=NN(C3CCCC3)C(=O)[C@H]3CC=CC[C@@H]23)ccc1OC` (relative stereo) yielded a melting point of 124 to 127 °C.

`O=c1[nH]c2ccccc2cc1CC1CCc2ccccc2N1` (stereo not drawn) registered a melting point of 196 to 199 °C. Next, `CN1Sc2sccc2C=C1CO`: 128 to 130 °C; `Cc1cccc(C(=O)Nc2c[nH]nc2C(=O)NCCC#N)n1`: 225 to 227 °C; `Cc1cn(CC(=O)N(CCNC(=O)OC(C)(C)C)CC(=O)Oc2c(F)c(F)c(F)c(F)c2F)c(=O)[nH]c1=O`: 174 to 176 °C. The compound `O=C(O)COc1ccc2cc(-c3cnc(Cc4ccc5ccccc5c4)o3)ccc2c1` came in with a melting point of 258 to 260 °C. Next, `CN(C)S(=O)(=O)c1ccc(Br)cc1`: 90 to 92 °C.

With `Cc1nc2ccc(S(=O)(=O)n3c(CCCC(=O)O)cc4nc(Cl)ccc43)cc2s1`, the melting point was determined as 184 °C. Next, `COc1ccccc1-c1ccc(-c2ccc(C(=O)O)cc2)cc1-c1ccc2c(c1)C(C)(C)CCC2(C)C`: 133 to 136 °C; `CCCCCCc1sc(C(=O)O)c2c1-c1c(cnn1C)CC2`: 242 to 243 °C; `COc1ccc(C(=O)N(C(=O)c2ccc(OC)cc2)c2nc3ccc(N4CCOCC4)cc3c(NCc3ccccc3)c2C#N)cc1`: 157 °C. Next, `O=c1c(Cl)c(-c2ccc3c(ccn3[C@H]3CC[C@H](O)CC3)c2)ccn1CC1CC1`: 209 °C.

For `COc1ccc2[nH]c(S(=O)Cc3ncc(C)c(N4CCCC4)c3Cl)nc2c1` (stereo not drawn), the melting point lay within 145 to 146 °C. The compound `CCOc1cc(C(F)(F)F)sc1C(=O)OC` showed a melting point of 93.6 °C. `CCCCC(=O)Nc1cc(C(=O)N2CCOCC2)ccn1` gave a melting point of 110 to 112 °C. Next, `CCOP(=O)(CC(=O)Nc1c(C(C)C)cccc1C(C)C)NCC(c1ccccc1)c1ccccc1` (stereo not drawn): 172 to 176 °C. As for `O=C(C(=O)c1ccc(F)c(Br)c1)c1ccc(OCCF)cc1`, the melting point was 107 °C.

Take `NC1=Nc2ncccc2OC1`: the melting point is 173 to 174 °C.

With `CN(C)CCNCCc1ccc(Nc2ncc3c(n2)-c2ccccc2C(c2cccc(Br)c2)C3)cc1` (stereo not drawn), the melting point lay within 75 to 77 °C.

`CCOP(=O)(OCC)C(F)(F)c1ccc(NC(=O)CCc2oc(-n3cnc4ccccc43)nc2-c2ccc(Cl)cc2)cc1`: the melting point was 155 to 156 °C. Next, `O=C(CN1CCC(Cc2ccccc2)CC1)Nc1ccc2[nH]c(=O)oc2c1`: 210 to 212 °C; `C=Cn1c(=O)c(C#N)c(N2CCN(C(=O)c3cccs3)CC2)c2cccnc21`: 228 °C; `CC(C(=O)O)C1CCCCC1` (stereo not drawn): 63 to 64 °C. Next, `COc1cc(F)c(C(=O)CCCCCBr)cc1OC`: 81 to 83 °C. Next, `O=C(CN(Cc1ccc(OCc2ccccc2)cc1)C(=O)[C@H](Cc1c[nH]cn1)NC(=O)OCc1ccccc1)NCCCCc1ccccc1`: 58 to 61 °C; `COC(=O)c1cccc(C2C(C#N)=C(N)Oc3c2ccc2cnccc32)c1` (stereo not drawn): 229 to 230 °C; `CNC(=O)NC1(C)CCCc2sccc21` (stereo not drawn): 135 to 145 °C. Compound `COc1ccc2cccc(C=CN3C(=O)c4ccccc4C3=O)c2c1` had a melting point of 146 °C. For the compound `COCNC(=O)NC1CCCc2sccc21` (stereo not drawn), the melting point fell in the range of 160 to 162 °C. With `O=C1Nc2ccc(Br)cc2C(c2ccccc2)=NC1O` (stereo not drawn), the melting point was in the range of 190 to 192 °C. The result for `N#CCCCCCCc1nc(-c2ccc(Cl)cc2)c(-c2ccc(Cl)cc2)o1` reads 64 °C; that for `CN(C(=O)OC(C)(C)C)c1cc(Sc2cc(C(C)(C)C)c(O)c(C(C)(C)C)c2)ccc1[N+](=O)[O-]`, 140 to 141 °C; that for `CCCc1ccnc2c(=O)[nH]c(-c3cc(S(=O)(=O)N4CCN(CCO)CC4)ccc3OCC)nc12`, 187 to 188 °C.

Turning to `COCCNc1ccc2ncnc(Nc3cccc(C)c3)c2c1`, the melting point is 163 to 167 °C. For the compound `C[C@@]1(C(=O)O)Oc2ccccc2NC1=O`, the melting point was 168 to 171 °C. The result for `CCCc1ccc(NC(C)=O)cn1` reads 122 to 124 °C; that for `CN(C)CC1CCc2cc(NC(=O)c3ccc(-c4ccc(CO)cc4)cc3)ccc2C1` (stereo not drawn), 138 to 139 °C. Consider `COCOc1cc(Cl)c(Br)cc1C(=O)c1ncccc1OCOC`, for which the melting point fell in the range of 70 to 72 °C.

Compound `COC(=O)CC[C@H]1CC[C@H](NC(=O)N(NC=O)c2ccc(C#N)cc2)CC1` gave a melting point of 140 to 142 °C.

With `O=C(Nc1cc(F)ccc1N1CCCCC1)c1ccncc1`, the melting point fell in the range of 115 to 116 °C. Take `Oc1cc(Cl)c(N2CCOCC2)cc1Oc1ccc(Cl)cc1Cl`: the melting point lay within 187 to 188 °C. Consider `O=C(c1cc2cc(OCc3ccccc3)ccc2[nH]1)C1(c2ccc(Cl)cc2)CCCC1`, for which the melting point is 134 to 136 °C. The result for `CCNc1nc2ccc(OC(F)(F)F)cc2s1` reads 135 °C.

On to `O=C(O)CCCC(=O)Nc1cccc(-c2ccnc3c(C(=O)c4cccs4)cnn23)c1`, for which the melting point was in the range of 189 to 190 °C. For the compound `CCCCCCCCCCCCCCC[C@H]1O[C@@H]1C(=O)OC`, the melting point lay within 54 to 55 °C.

`CN(C)C(=N)Nc1ccccc1-c1ccc(Cl)cc1` came in with a melting point of 150 to 152 °C. With `C[C@@H]1CN(CC=CC(=O)Nc2cc3c(Nc4ccc(F)c(Cl)c4)ncnc3cc2O[C@@H]2CCOC2)CC(=O)O1`, the melting point was found to be 230 °C. Turning to `c1ccc(P(Cc2ccccc2-c2ccccc2CP(c2ccccc2)c2ccccc2)c2ccccc2)cc1`, the melting point was 84 to 87 °C. `CCOC(=O)CC(=O)c1ccc(Cl)c(C)c1` yielded a melting point of 50 to 51 °C. `Cc1ccc(S(=O)(=O)NCCc2ccc(C(=O)CN3CCN(c4ccncc4)CC3)cc2)cc1` yielded a melting point of 133 to 135 °C. The result for `O=C1c2cccc(F)c2C(=O)N1CCN1CCC(c2noc3cc(F)ccc23)CC1` reads 142 to 143 °C. With `CNC(=S)Nc1ccc(C)cn1`, the melting point is 161 °C. For `COC(=O)c1ccn2ccnc2c1`, the melting point was 143 °C.
